This note sets out measurements from ChEMBL document CHEMBL5518170, “Dual target PARP1/EZH2 inhibitors inducing excessive autophagy and producing synthetic lethality for triple-negative breast cancer therapy” (Eur J Med Chem, 2024).

In test [1] the test system is MCF-10A. The experiment in a line: cells. As to conditions: Homo sapiens, 72 h.
Description: Cytotoxicity against human MCF-10A cells incubated for 72 hrs by MTT assay
Test [2] has as its system BT-549. The test is described as follows: cells. As to conditions: Homo sapiens, BT-549, 72 h.
Description: Cytotoxicity against human BT-549 cells incubated for 72 hrs by MTT assay
Test [3] has as its system MDA-MB-231. The test is described as follows: cells. As to conditions: Homo sapiens, MDA-MB-231, 72 h.
Description: Cytotoxicity against human MDA-MB-231 cells incubated for 72 hrs by MTT assay
Test [4] has as its system MCF-10A. The test is described as follows: cells. To be noted: Homo sapiens, 72 h. The source holds these as a separate data set.
Test [5] concerns MDA-MB-231. The experiment in a line: Synergistic antitumor activity against human MDA-MB-231 cells xenografted in BALB/c mouse assessed as tumor growth inhibition at 50 mg/kg,ip administrated in presence of Niraparib for 21 consecutive days. The format is functional. As to conditions: read-out: TGI.
For test [6], the system named is BT-549. The experiment in a line: cells. To be noted: Homo sapiens, BT-549, 72 h. This is another data set of the same source.
Test [7] concerns MDA-MB-231. The experiment in a line: cells. To be noted: Homo sapiens, MDA-MB-231, 72 h. This is another data set of the same source.

A value given as a limit tells only on which side of the number the result lay.

As usually defined, the IC50 is the concentration needed to halve the response being measured. A low value points to greater potency. Regarding `CCNc1cc(-c2ccc(CC(=O)N3CCC(c4nc5c(C(N)=O)cccc5[nH]4)CC3)cc2)cc(C(=O)NCc2c(C)cc(C)[nH]c2=O)c1C`, the concentration for half-maximal inhibition (IC50) in the test on MCF-10A [1], in the test with BT-549 [2] and with MDA-MB-231 [3] was above 40 µM each time.
Consider `CCNc1cc(-c2ccc(CC(=O)NCCc3nc4c(C(N)=O)cccc4[nH]3)cc2)cc(C(=O)NCc2c(C)cc(C)[nH]c2=O)c1C`, for which the concentration for half-maximal inhibition (IC50) is above 40 µM in the test with MCF-10A [1], 31.5 µM in the test on BT-549 [2] and above 40 µM in the test on MDA-MB-231 [3].
For `CCNc1cc(-c2ccc(CC(=O)NCCCCCc3nc4c(C(N)=O)cccc4[nH]3)cc2)cc(C(=O)NCc2c(C)cc(C)[nH]c2=O)c1C`, the IC50 with MCF-10A [1], in the test on BT-549 [2] and with MDA-MB-231 [3] was above 40 µM throughout.
For the compound `CCNc1cc(-c2ccc(CC(=O)N3CCC[C@H](c4nc5c(C(N)=O)cccc5[nH]4)C3)cc2)cc(C(=O)NCc2c(C)cc(C)[nH]c2=O)c1C`, the half-inhibitory concentration (IC50) in the test on MCF-10A [1] is above 40 µM; in the test with BT-549 [2], 23.5 µM; in the test with MDA-MB-231 [3], 33.7 µM.
`CCNc1cc(-c2ccc(CC(=O)NCc3nc4c(C(N)=O)cccc4[nH]3)cc2)cc(C(=O)NCc2c(C)cc(C)[nH]c2=O)c1C`: the figures for the IC50 with MCF-10A [1], in the test on BT-549 [2] and in the test on MDA-MB-231 [3] were above 40 µM, 21.8 µM and above 40 µM, respectively.
As to `CCNc1cc(-c2ccc(CC(=O)NCCCCc3nc4c(C(N)=O)cccc4[nH]3)cc2)cc(C(=O)NCc2c(C)cc(C)[nH]c2=O)c1C`, the IC50 in the test on MCF-10A [1], with BT-549 [2] and with MDA-MB-231 [3] was above 40 µM each time.
For the compound `CCNc1cc(-c2ccc(CC(=O)NCCCc3nc4c(C(N)=O)cccc4[nH]3)cc2)cc(C(=O)NCc2c(C)cc(C)[nH]c2=O)c1C`, the IC50 with MCF-10A [1] is above 40 µM; in the test with BT-549 [2], 37.2 µM; in the test with MDA-MB-231 [3], above 40 µM.
On to `CCNc1cc(-c2ccc(CC(=O)N3CCC(Cc4nc5c(C(N)=O)cccc5[nH]4)CC3)cc2)cc(C(=O)NCc2c(C)cc(C)[nH]c2=O)c1C`, for which the half-maximal inhibitory concentration (IC50) in the test on MCF-10A [1], in the test on BT-549 [2] and in the test with MDA-MB-231 [3] was above 40 µM in each case.
Turning to `CCNc1cc(-c2ccc(CC(=O)N3CC(c4nc5c(C(N)=O)cccc5[nH]4)C3)cc2)cc(C(=O)NCc2c(C)cc(C)[nH]c2=O)c1C`, the 50% inhibitory concentration (IC50) in the test with MCF-10A [1], with BT-549 [2] and in the test with MDA-MB-231 [3] was above 40 µM in each case.
As to `CCNc1cc(-c2ccc(CC(=O)Nc3ccc(-c4nc5c(C(N)=O)cccc5[nH]4)cc3)cc2)cc(C(=O)NCc2c(C)cc(C)[nH]c2=O)c1C`, the IC50 in the test with MCF-10A [1], in the test on BT-549 [2] and in the test with MDA-MB-231 [3] was above 40 µM each time.
For the compound `CCn1ccc2c(C(=O)NCc3c(C)cc(C)[nH]c3=O)cc(-c3ccc(-c4nc5c(C(N)=O)cccc5[nH]4)cc3)cc21`, the IC50 with MCF-10A [1], with BT-549 [2] and in the test on MDA-MB-231 [3] was above 40 µM throughout.
Turning to `CCNc1cc(-c2ccc(CC(=O)N3CC[C@@H](c4nc5c(C(N)=O)cccc5[nH]4)C3)cc2)cc(C(=O)NCc2c(C)cc(C)[nH]c2=O)c1C`, the 50% inhibitory concentration (IC50) is above 40 µM in the test with MCF-10A [1], 22.6 µM in the test on BT-549 [2] and above 40 µM with MDA-MB-231 [3].
Take `CC[C@H](C)n1cc(C)c2c(C(=O)NCc3c(C)cc(C)[nH]c3=O)cc(-c3ccc(N4CCNCC4)nc3)cc21` [GSK2816126]: the IC50 is above 40 µM with MCF-10A [1]; 19.2 µM in the test on BT-549 [2]; above 40 µM in the test with MCF-10A [4]; 8.28 µM in the test with BT-549 [6]; 13.2 µM with MDA-MB-231 [3]; 6.32 µM in the test on MDA-MB-231 [7]. In the test on MDA-MB-231 [5], the inhibition in vivo at 50 mg/kg was found to be 57.2%.
Consider `O=C(c1cc(Cc2n[nH]c(=O)c3ccccc23)ccc1F)N1CCN(C(=O)C2CC2)CC1` [OLAPARIB], for which the IC50 in the test with MCF-10A [1] is above 40 µM; in the test with BT-549 [2], 35.2 µM; in the test on MDA-MB-231 [3], 35.8 µM.
